Values joined by “and” are separate entries in the source; they are usually repeats but may differ in a detail not shown here. Equal entries are not always repeated. Toxic doses and inconclusive results are not listed.
Test system: L1210 leukemia ip in BDF1 mice, survival T/C
Experiment: NCI In Vivo Anticancer Drug Screen. Data for tumor model L1210 Leukemia (intraperitoneal) in B6D2F1 (BDF1) mice
Conditions: higher = longer survival
How it was run: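 Ratio derived from survival: compound-dosed mice over vehicle-dosed mice, all bearing a transplantable tumor.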

[1] = endpoint: mean survival time, dose: 100.0 mg/kg/injection, schedule: Q01DX001 (ip), vehicle: saline
[2] = endpoint: mean survival time, dose: 200.0 mg/kg/injection, schedule: Q01DX001 (ip), vehicle: saline
[3] = endpoint: mean survival time, dose: 400.0 mg/kg/injection, schedule: Q01DX001 (ip), vehicle: saline

CC[n+]1ccc(Nc2ccc(NC(=O)c3ccc(Nc4cc[n+](CC)c5ccc(N)cc45)cc3)cc2)cc1
T/C (endpoint: mean survival time, dose: 0.12 mg/kg/injection, schedule: Q01DX005 (iv), vehicle: water): 101 % of control | T/C (endpoint: mean survival time, dose: 0.12 mg/kg/injection, schedule: Q04DX003 (iv), vehicle: water): 105 % of control | T/C (endpoint: mean survival time, dose: 0.25 mg/kg/injection, schedule: Q01DX005 (iv), vehicle: water): 105 % of control | T/C (endpoint: mean survival time, dose: 0.25 mg/kg/injection, schedule: Q03HX024 (ip), vehicle: water): 113 % of control | T/C (endpoint: mean survival time, dose: 0.25 mg/kg/injection, schedule: Q04DX003 (iv), vehicle: water): 102 % of control | T/C (endpoint: mean survival time, dose: 0.5 mg/kg/injection, schedule: Q01DX005 (iv), vehicle: water): 100 % of control and 103 % of control | T/C (endpoint: mean survival time, dose: 0.5 mg/kg/injection, schedule: Q01DX009 (sc), vehicle: water): 94 % of control | T/C (endpoint: mean survival time, dose: 0.5 mg/kg/injection, schedule: Q03HX024 (ip), vehicle: water): 157 % of control | T/C (endpoint: mean survival time, dose: 0.5 mg/kg/injection, schedule: Q03HX024 (oral), vehicle: water): 97 % of control | T/C (endpoint: mean survival time, dose: 0.5 mg/kg/injection, schedule: Q04DX003 (iv), vehicle: water): 101 % of control | T/C (endpoint: mean survival time, dose: 0.75 mg/kg/injection, schedule: Q01DX009 (ip), vehicle: saline): 152 % of control and 201 % of control | T/C (endpoint: mean survival time, dose: 1.0 mg/kg/injection, schedule: Q01DX005 (iv), vehicle: water): 115 % of control | T/C (endpoint: mean survival time, dose: 1.0 mg/kg/injection, schedule: Q01DX009 (ip), vehicle: water): 180 % of control and 211 % of control | T/C (endpoint: mean survival time, dose: 1.0 mg/kg/injection, schedule: Q01DX009 (oral), vehicle: water): 103 % of control | T/C (endpoint: mean survival time, dose: 1.0 mg/kg/injection, schedule: Q01DX009 (sc), vehicle: water): 112 % of control and 122 % of control | T/C (endpoint: mean survival time, dose: 1.0 mg/kg/injection, schedule: Q03HX016 (ip), vehicle: water): 156 % of control | T/C (endpoint: mean survival time, dose: 1.0 mg/kg/injection, schedule: Q03HX024 (ip), vehicle: water): 186 % of control and 187 % of control and 208 % of control | T/C (endpoint: mean survival time, dose: 1.0 mg/kg/injection, schedule: Q03HX024 (oral), vehicle: water): 96 % of control and 101 % of control | T/C (endpoint: mean survival time, dose: 1.0 mg/kg/injection, schedule: Q03HX024 (sc), vehicle: water): 164 % of control | T/C (endpoint: mean survival time, dose: 1.0 mg/kg/injection, schedule: Q04DX003 (iv), vehicle: water): 103 % of control | T/C (endpoint: mean survival time, dose: 1.5 mg/kg/injection, schedule: Q01DX009 (ip), vehicle: saline): 160 % of control and 171 % of control | T/C (endpoint: mean survival time, dose: 1.9 mg/kg/injection, schedule: Q01DX009 (ip), vehicle: saline): 281 % of control | T/C (endpoint: mean survival time, dose: 2.0 mg/kg/injection, schedule: Q01DX005 (iv), vehicle: water): 103 % of control | T/C (endpoint: mean survival time, dose: 2.0 mg/kg/injection, schedule: Q01DX009 (oral), vehicle: water): 103 % of control | T/C (endpoint: mean survival time, dose: 2.0 mg/kg/injection, schedule: Q01DX009 (sc), vehicle: water): 189 % of control and 206 % of control | T/C (endpoint: mean survival time, dose: 2.0 mg/kg/injection, schedule: Q03HX016 (ip), vehicle: water): 188 % of control | T/C (endpoint: mean survival time, dose: 2.0 mg/kg/injection, schedule: Q03HX024 (ip), vehicle: water): 123 % of control and 218 % of control | T/C (endpoint: mean survival time, dose: 2.0 mg/kg/injection, schedule: Q03HX024 (oral), vehicle: water): 97 % of control and 100 % of control | T/C (endpoint: mean survival time, dose: 2.0 mg/kg/injection, schedule: Q03HX024 (sc), vehicle: water): 211 % of control | T/C (endpoint: mean survival time, dose: 2.0 mg/kg/injection, schedule: Q04DX003 (ip), vehicle: water): 113 % of control and 120 % of control | T/C (endpoint: mean survival time, dose: 2.0 mg/kg/injection, schedule: Q04DX003 (iv), vehicle: water): 105 % of control | T/C (endpoint: mean survival time, dose: 3.0 mg/kg/injection, schedule: Q01DX009 (ip), vehicle: saline): 274 % of control | T/C (endpoint: mean survival time, dose: 3.2 mg/kg/injection, schedule: Q01DX009 (ip), vehicle: saline): 313 % of control | T/C (endpoint: mean survival time, dose: 4.0 mg/kg/injection, schedule: Q01DX001 (ip), vehicle: water): 111 % of control | T/C (endpoint: mean survival time, dose: 4.0 mg/kg/injection, schedule: Q01DX009 (oral), vehicle: water): 96 % of control | T/C (endpoint: mean survival time, dose: 4.0 mg/kg/injection, schedule: Q01DX009 (sc), vehicle: water): 116 % of control and 219 % of control | T/C (endpoint: mean survival time, dose: 4.0 mg/kg/injection, schedule: Q03HX016 (ip), vehicle: water): 271 % of control | T/C (endpoint: mean survival time, dose: 4.0 mg/kg/injection, schedule: Q03HX024 (ip), vehicle: water): 112 % of control | T/C (endpoint: mean survival time, dose: 4.0 mg/kg/injection, schedule: Q03HX024 (oral), vehicle: water): 100 % of control and 101 % of control | T/C (endpoint: mean survival time, dose: 4.0 mg/kg/injection, schedule: Q08DX002 (ip), vehicle: water): 107 % of control | T/C (endpoint: mean survival time, dose: 4.0 mg/kg/injection, schedule: Q08DX002 (oral), vehicle: water): 101 % of control | T/C (endpoint: mean survival time, dose: 5.0 mg/kg/injection, schedule: Q01DX009 (oral), vehicle: water): 103 % of control | T/C (endpoint: mean survival time, dose: 6.0 mg/kg/injection, schedule: Q01DX009 (ip), vehicle: saline): 271 % of control | T/C (endpoint: mean survival time, dose: 8.0 mg/kg/injection, schedule: Q01DX009 (ip), vehicle: water): 96 % of control | T/C (endpoint: mean survival time, dose: 8.0 mg/kg/injection, schedule: Q01DX009 (oral), vehicle: water): 104 % of control (2×) and 107 % of control | T/C (endpoint: mean survival time, dose: 8.0 mg/kg/injection, schedule: Q01DX009 (sc), vehicle: water): 101 % of control and 117 % of control | T/C (endpoint: mean survival time, dose: 8.0 mg/kg/injection, schedule: Q03HX024 (oral), vehicle: water): 106 % of control | T/C (endpoint: mean survival time, dose: 8.0 mg/kg/injection, schedule: Q03HX024 (sc), vehicle: water): 104 % of control | T/C (endpoint: mean survival time, dose: 8.0 mg/kg/injection, schedule: Q04DX003 (ip), vehicle: water): 160 % of control and 164 % of control and 175 % of control | T/C (endpoint: mean survival time, dose: 9.0 mg/kg/injection, schedule: Q01DX009 (ip), vehicle: saline): 109 % of control | T/C (endpoint: mean survival time, dose: 10.0 mg/kg/injection, schedule: Q01DX009 (oral), vehicle: water): 103 % of control | T/C (endpoint: mean survival time, dose: 16.0 mg/kg/injection, schedule: Q01DX009 (ip), vehicle: water): 94 % of control | T/C (endpoint: mean survival time, dose: 16.0 mg/kg/injection, schedule: Q01DX009 (oral), vehicle: water): 101 % of control | T/C (endpoint: mean survival time, dose: 16.0 mg/kg/injection, schedule: Q04DX003 (ip), vehicle: water): 177 % of control and 190 % of control and 245 % of control | T/C (endpoint: mean survival time, dose: 18.0 mg/kg/injection, schedule: Q01DX001 (ip), vehicle: saline): 157 % of control | T/C (endpoint: mean survival time, dose: 20.0 mg/kg/injection, schedule: Q01DX009 (oral), vehicle: water): 100 % of control | T/C (endpoint: mean survival time, dose: 25.0 mg/kg/injection, schedule: Q01DX001 (ip), vehicle: saline): 120 % of control | T/C (endpoint: mean survival time, dose: 32.0 mg/kg/injection, schedule: Q01DX009 (oral), vehicle: water): 103 % of control and 111 % of control | T/C (endpoint: mean survival time, dose: 32.0 mg/kg/injection, schedule: Q03HX008 (ip), vehicle: water): 190 % of control | T/C (endpoint: mean survival time, dose: 40.0 mg/kg/injection, schedule: Q01DX009 (oral), vehicle: water): 105 % of control | T/C (endpoint: mean survival time, dose: 64.0 mg/kg/injection, schedule: Q01DX009 (oral), vehicle: water): 100 % of control and 102 % of control | T/C (endpoint: mean survival time, dose: 80.0 mg/kg/injection, schedule: Q01DX009 (oral), vehicle: water): 110 % of control | T/C (endpoint: median survival time, dose: 0.5 mg/kg/injection, schedule: Q03HX024 (ip), vehicle: water): 120 % of control and 122 % of control | T/C (endpoint: median survival time, dose: 1.3 mg/kg/injection, schedule: Q03HX024 (ip), vehicle: water): 190 % of control and 191 % of control | T/C (endpoint: median survival time, dose: 2.2 mg/kg/injection, schedule: Q01DX009 (ip), vehicle: water): 195 % of control and 198 % of control | T/C (endpoint: median survival time, dose: 2.2 mg/kg/injection, schedule: Q03HX024 (ip), vehicle: water): 235 % of control and 247 % of control | T/C (endpoint: median survival time, dose: 3.6 mg/kg/injection, schedule: Q01DX009 (ip), vehicle: water): 225 % of control and 227 % of control | T/C (endpoint: median survival time, dose: 6.0 mg/kg/injection, schedule: Q01DX009 (ip), vehicle: water): 170 % of control and 172 % of control | T/C (endpoint: median survival time, dose: 10.0 mg/kg/injection, schedule: Q01DX009 (ip), vehicle: water): 120 % of control and 122 % of control

C=C/C=C/CC=C
T/C [1]: 107 % of control | T/C [2]: 107 % of control | T/C [3]: 109 % of control

Nc1nc(SCc2ccccc2)nc2nc[nH]c12
T/C (endpoint: mean survival time, dose: 50.0 mg/kg/injection, schedule: Q01DX001 (ip), vehicle: Klucel (hydroxypropylcellulose) (HPC)): 91 % of control | T/C (endpoint: mean survival time, dose: 100.0 mg/kg/injection, schedule: Q01DX001 (ip), vehicle: Klucel (hydroxypropylcellulose) (HPC)): 95 % of control | T/C (endpoint: mean survival time, dose: 200.0 mg/kg/injection, schedule: Q01DX001 (ip), vehicle: Klucel (hydroxypropylcellulose) (HPC)): 93 % of control

CC(C)(C)c1cc(C#N)cc(Br)c1O
T/C (endpoint: mean survival time, dose: 25.0 mg/kg/injection, schedule: Q04DX002 (ip), vehicle: saline with Tween-80): 102 % of control | T/C (endpoint: mean survival time, dose: 50.0 mg/kg/injection, schedule: Q04DX002 (ip), vehicle: saline with Tween-80): 97 % of control | T/C (endpoint: mean survival time, dose: 100.0 mg/kg/injection, schedule: Q04DX002 (ip), vehicle: saline with Tween-80): 97 % of control and 102 % of control

N#Cc1nc[nH]c1C(N)=O
T/C [1]: 94 % of control | T/C [2]: 94 % of control | T/C [3]: 96 % of control

N#Cc1ccc(C(CCCCC(Cc2ccccc2)c2ccc(C#N)cc2)Cc2ccccc2)cc1 (centres undefined)
T/C (endpoint: mean survival time, dose: 50.0 mg/kg/injection, schedule: Q01DX001 (ip), vehicle: saline): 93 % of control | T/C [2]: 102 % of control | T/C [3]: 104 % of control

Source: PubChem BioAssay AID248 (DTP/NCI, 2004)
